In patent US12570614B2, “Phenyl amino pyrimidine compounds and uses thereof” (GlaxoSmithKline LLC, priority 2007, dated 2026):
Structures can show the parent of a compound that is named as a salt.

How the values were obtained:
Ba/F3 TelJAK2 cells = assay: Subcutaneous tumour model of Ba/F3 TelJAK2 cells in nude mice; type: in vivo, mouse; settings: 5 mg/kg i.v. 3× weekly, after 14 days of dosing, t-test p<0.05
Method: Dosing commenced 11 days post-tumour cell inoculation, when tumours were palpable (mean tumour volume of 6 mm^3). Tumour dimensions were measured twice weekly.

BaF3 wild-type cells = assay: Cellular screening, BaF3 wild-type cells (Alamar Blue); type: cell-based; settings: Mus musculus, 48-72 hr incubation, read-out: BAF3wt_IC50_μM
Method: (§1) For screening purposes, compounds were diluted in 96 well plates at a concentration of 20 μM. Plates were warmed at 37° C. for 30 minutes before the assay was performed.
(§2) The growth factor dependent myelomonocytic cell line BaF3 bearing the pTET-off plasmid (Clontech) was transfected with either pTELJAK2 or pTELJAK3, and the transfected cells were selected for growth-factor independent cell growth. The BaF3 wild-type cells were cultured in DMEM containing 10% FCS, 10% WEHI 3B conditioned medium. The BaF3 TELJAK cells ([…]) were cultured in DMEM 10% Tet-System Approved FBS (without WEHI 3B conditioned medium).
(§3) Cell suspensions were prepared by harvesting cells from culture (the cells used in this test were in late log phase growth with high viability.) Cells were diluted in the appropriate growth medium, as described above, to 1.1× final concentration (from 50,000 cell/mL to 200,000 cell/mL, depending on cell line).
(§4) Compounds to be tested were added (10 μL, 10× final concentration) to a flat bottomed 96-well plate. The cellular suspension (90 μL per well) was then added, and the plate incubated for 48-72 hr at 37° C., 5% CO2. Alamar Blue 10 μL per well was added and the plates returned to the incubator for a further 4-6 hours. The plates were then read at 544 nm.
(§5) Result are given in table 2 where +++ is <1 μM, ++ is <5 μM and + is <20 μM

human JAK2 = human JAK2 (Homo sapiens (Human), UniProt O60674); assay: JAK2 kinase domain Alphascreen enzyme screening; type: biochemical; settings: read-out: JAK2_IC50_nM
Method: (§6) For screening purposes, compounds (in 100% DMSO) were warmed at 37° C. for at least 20 minutes before use. A […] stock was initially made in assay buffer, where the final concentration of DMSO was 0.3%. The stocks were then diluted in 384 well Optiplates (Packard) where the final concentration of the compound was 5 μM.
The kinase domain of human JAK2 was amplified from U937 mRNA using the polymerase chain reaction with the following primers: […]
The JAK2 PCR products were cloned into the pDest20 destination vector (Gibco). The JAK2 plasmid was then transformed into competent DH10Bac cells (Gibco), and the recombinant baculovirus was prepared via Sf9 insect cell transfection.
(§7) Baculovirus preparations from each of the JAK family members were infected into one litre of […] (Spodoptera frugiperda) cells (Invitrogen) grown in SF900II serum free medium (Invitrogen) to a cell density of approximately 2×10^6 cells/ml. Cells were infected with virus at a cell culture to virus stock ratio of 20:1. Cells were harvested and lysed 48 hours post infection. The GST-tagged JAK kinase domains were purified by affinity chromatography on a GSH agarose column (Scientifix).
Alphascreen phosphotyrosine acceptor beads followed by streptavidin donor beads at a concentration of 1/100 in stop buffer were added to each well under subdued light and incubated for 2-3 hours. The Alphascreen plates were read on a Packard Fusion Alpha instrument

CTLL2 = assay: Cellular screening, CTLL2 cells (Alamar Blue); type: cell-based; settings: Mus musculus, CTLL-2; 48-72 hr incubation; read-out: CTLL2_IC50_μM
Method: as §1, §3, §4, §5

[1] = test system: BaF3 TELJAK cells (BafT_J2); assay: Cellular screening, BaF3 TELJAK2 cells (Alamar Blue); type: cell-based; settings: Mus musculus, BaF3; 48-72 hr incubation; read-out: BafT_J2_IC50_μM
Method: as §1
A TEL/Jak2 fusion was generated by digestion of the TELPCR product with BamH I/Sal I restriction enzymes, digestion of the JAK2 PCR product with Sal I/Not I restriction enzymes, followed by ligation and subcloning of the ligation product into the mammalian expression Vector pTRE 2 (Clontech), which was prepared by digestion with BamH I—Not I restriction enzymes, to give the TEL/Jak2 fusion plasmid pTELJAK2.
as §2, §3
as §4, with “hours.” for “hours. The plates were then read at 544 nm.”
as §5

human JAK3 = human JAK3 (Homo sapiens (Human), UniProt P52333); assay: JAK3 kinase domain Alphascreen enzyme screening; type: biochemical; settings: read-out: JAK3_ IC50_nM
Method: as §6
The kinase domain of human JAK3 was amplified from U937 mRNA using the polymerase chain reaction with the following primers: […]
The JAK3 PCR products were cloned into the pDest20 destination expression vector (Gibco). The JAK3 plasmid was then transformed into competent DH10Bac cells (Gibco), and the recombinant baculovirus was prepared via Sf9 insect cell transfection.
as §7
The compounds were then incubated with substrate in the presence of either […] ATP for 60 or 90 minutes. […] (final concentration 111 μM) or substrate-2 substrate with the sequence biotin-[…] [SEQ ID NO: 16] (final concentration 133 μM). Alphascreen phosphotyrosine acceptor beads followed by streptavidin donor beads at a concentration of 1/100 in stop buffer were added to each well under subdued light and incubated for 2-3 hours. The Alphascreen plates were read on a Packard Fusion Alpha instrument

human JAK3, sequence (P52333 822-1111): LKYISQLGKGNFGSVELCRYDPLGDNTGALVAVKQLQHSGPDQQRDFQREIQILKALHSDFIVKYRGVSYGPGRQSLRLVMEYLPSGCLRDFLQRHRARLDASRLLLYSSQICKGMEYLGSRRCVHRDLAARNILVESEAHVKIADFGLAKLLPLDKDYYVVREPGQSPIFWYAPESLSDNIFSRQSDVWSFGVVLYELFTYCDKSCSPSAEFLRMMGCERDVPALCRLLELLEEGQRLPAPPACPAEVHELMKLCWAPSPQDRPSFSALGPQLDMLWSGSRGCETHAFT
human JAK2, sequence (O60674 849-1124): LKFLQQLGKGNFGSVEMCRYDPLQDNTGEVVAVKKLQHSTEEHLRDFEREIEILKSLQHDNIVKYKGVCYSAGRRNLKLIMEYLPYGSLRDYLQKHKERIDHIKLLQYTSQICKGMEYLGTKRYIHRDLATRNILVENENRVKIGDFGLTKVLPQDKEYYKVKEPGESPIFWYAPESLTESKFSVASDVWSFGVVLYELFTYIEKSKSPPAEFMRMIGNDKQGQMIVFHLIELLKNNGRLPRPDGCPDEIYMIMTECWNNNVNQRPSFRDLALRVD

| IC50 (BaF3 wild-type cells) [nM] | IC50 (human JAK2) [nM] | IC50 [1] [nM] | IC50 (human JAK3) [nM] | Structure (SMILES) | tumour volumes compared to Vehicle Control Treated Group (Ba/F3 TelJAK2 cells) | IC50 (CTLL2) [nM] |
| --- | --- | --- | --- | --- | --- | --- |
|  |  |  |  | CC(=O)O[C@H]1C(=O)[C@@]2(C)[C@H]([C@H](OC(=O)c3ccccc3)[C@]3(O)C[C@H](OC(=O)[C@H](O)[C@@H](NC(=O)c4ccccc4)c4ccccc4)C(C)=C1C3(C)C)[C@]1(OC(C)=O)CO[C@@H]1C[C@@H]2O [Taxol, reference compound] | smaller tumour volumes |  |
| < 1000 | < 100 | < 5000 | < 500 | N#CCNC(=O)c1ccc(-c2ccnc(Nc3ccc(OC4CCNCC4)cc3)n2)cc1 [Compound 59, N-(cyanomethyl)-4-(2-(4-(piperidin-4-yloxy)phenylamino)pyrimidin-4-yl)benzamide] |  | < 5000 |
| < 5000 | < 100 | < 5000 | < 500 | CS(=O)(=O)N(CC#N)c1ccc(-c2ccnc(Nc3ccc(N4CCOCC4)cc3)n2)cc1 [Compound 31, N-(cyanomethyl)-N-(4-(2-(4-morpholinophenyl-amino)pyrimidin-4-yl)phenyl)methane-sulfonamide] |  | < 5000 |
| < 5000 | < 100 | < 5000 | < 500 | N#CCNC(=O)c1ccc(-c2ccnc(Nc3ccc(N4CCS(=O)(=O)CC4)cc3)n2)cc1 [Compound 89, N-(cyanomethyl)-4-(2-{[4-(1,1-dioxo-1λ^6,4-thiomorpholin-4-yl)phenyl]amino}pyrimidin-4-yl)benzamide] |  | < 5000 |
| < 5000 | < 100 | < 5000 | < 1000 | CCCOCc1cccc(Nc2nccc(-c3ccc(C(=O)NCC#N)cc3)n2)c1 [Compound 75, N-(cyanomethyl)-4-(2-(3-(proproxymethyl)phenylamino)pyrimidin-4-yl)benzamide] |  | < 5000 |
| < 5000 | < 100 | < 1000 | < 100 | Cc1cnc(Nc2ccc(N3CCC(NS(C)(=O)=O)CC3)cc2)nc1-c1ccc(C(=O)NCC#N)cc1 [Compound 56, N-(cyanomethyl)-4-(5-methyl-2-(4-(4-(methylsulfonamido)piperidin-1-yl)phenylamino)pyrimidin-4-yl)benzamide] |  | < 5000 |
| < 5000 | < 100 | < 1000 | < 100 | Cc1cnc(Nc2ccc(N3CCC(O)CC3)cc2)nc1-c1ccc(C(=O)NCC#N)cc1 [Compound 58, N-(cyanomethyl)-4-(2-(4-(4-hydroxypiperidin-1-yl)phenylamino)-5-methylpyrimidin-4-yl)benzamide] |  | < 1000 |
| < 5000 | < 100 | < 1000 | > 1000 | CS(=O)(=O)N(CC#N)c1ccc(-c2ccnc(Nc3ccc(N4CCOCC4)c(C#N)c3)n2)cc1 [Compound 82, N-(4-(2-(3-cyano-4-morpholinophenyl-amino)pyrimidin-4-yl)phenyl)-N-(cyanomethyl) methanesulfonamide] |  | < 5000 |
| < 5000 | < 100 | < 5000 | < 1000 | C#CCN(c1ccc(-c2ccnc(Nc3ccc(N4CCOCC4)cc3)n2)cc1)S(C)(=O)=O [Compound 57, N-(4-(2-(4-morpholinophenyl-amino)pyrimidin-4-yl)phenyl)-N-(prop-2-ynyl)methane-sulfonamide tosylate] |  | < 5000 |
